Measurements: US20210386792A1, “A METHOD FOR INCREASING POPULATION OF SPERMATOGONIAL STEM CELLS” (priority 2018, published 2021)

Key:
GDNF = assay: Western blot of GDNF expression in whole testis lysates; type: in vivo, mouse; conditions: 5 weeks after busulfan vs PBS
Description: Testes harvested from vehicle or busulfan treated-wild type mice were homogenized in RIPA buffer and protein concentration quantified by the BioRad DC Protein Assay. Twenty-five ug of protein per sample were separated by SDS-PAGE, probed with anti-GDNF rabbit polyclonal antibody (1:500; Santa Cruz, Cat: 13147) or anti-cleaved Caspase 3 rabbit polyclonal antibody (1:1000; Cell Signaling, Cat: 9664) and detected by chemiluminescence (ECL, Amersham). Blots were stripped and re-probed with β-actin as a loading control. See Supplementary material for uncropped blots.
FIG. 1. a. Quantication of Gdnf mRNA in Sertoli cells and TECs, and GDNF levels by ELISA in conditioned media from Sertoli cells or TECs without or with FGF-2 (20 ngml-1) treatment for 3 days. b. Murine GFP+Thy1.2+SSCs were co-cultured with TECs or testicular cells depleted of CD31+ TECs but containing all other cell populations in the testes. After 3 weeks, SSC colonies were absent in CD31-depleted testicular cell co-cultures with Sertoli and PTM cells present, while a signicant number of GFP+ Thy1.2+ SSC colonies were present in co-cultures with TECs alone. c. Immunouorescence staining for CD31 (for ECs) on testis sections from wildtype mice 5 weeks after vehicle or busulfan treatment. […] Quantification of MVD and vessel length is shown on the right, n=3.

SSCs [1] = assay: Restoration of spermatogenesis after busulfan exposure; type: in vivo, mouse; conditions: mice, no transplantation
TECs [2] = assay: TECs proliferation and apoptosis assays; type: cell-based, mouse; conditions: TECs in culture, busulfan 800 μM vs DMSO
Protocol: TECs Proliferation and Apoptosis Assays
5×10^3 testicular ECs per well were plated on 8-chamber slide (LabteK) coated with 0.1% gelatin. Busulfan (800 μM) or DMSO were added to each well 24 hours after seeding and cultured for 72 or 96 hours. 10 μM BrdU (BD Pharmingen™) was added to media 72 hours after busulfan treatment, then incubated for 2 hours. Samples were stained with anti-BrdU (1:50; Invitrogen), anti-γ-H2AX (1:400; Millipore) and anti-cleaved caspase 3 (1:400; Cell Signaling). BrdU^+ cells in 10 random high-powered fields were counted and statistics were analyzed using Graph Pad Prism. Each condition was performed in triplicate.

SSCs [3] = conditions: mice, no transplantation; cited from earlier work
TECs [4] = assay: Microvessel density (CD31 immunostaining) in testes sections from busulfan-treated mice; type: in vivo, mouse; conditions: wild-type mice, 5 weeks after busulfan vs vehicle
Protocol: Testes were dissected from male mice were cryoprotected overnight in 20% (wt vol^−1) sucrose then frozen in OCT (Tissue-Tek). Testis sections (10 or 30 m) were blocked (5% normal goat serum and 0.1% bovine serum albumin in 0.1% PBS-T) for 1 hour and washed in 0.1% PBS-T. Primary antibodies: anti-CD31 rat-pAb (1:50; BD science, Cat: 550274), anti-PLZF rabbit-polyclonal Ab (1:50; Santa Cruz, Cat: 22839), anti-DDX4 rabbit pAb (1:200; Abcam, Cat: 13840), anti-Sox9 rabbit pAb (1:200; Millipore, Cat: ABE579), anti-GDNF rabbit polyclonal Ab (1:50; Santa Cruz, Cat: SC328) were diluted in blocking buffer and incubated for 2 hours at RT, then incubated with either anti-mouse Alexa 594 (1:1000, Thermo Fischer, Cat: A110323) or anti-rabbit Alexa 488 (1:1000, Thermo Fischer, Cat: A32723) at RT for 30 minutes. Sections were stained with for 1 min to detect nuclei. […] Digital images were analyzed for the area and density of endothelial cell markers, germline stem cell markers and GDNF by counting 5 random 20× fields per testis section.
Mice were sacrificed 5-6 weeks after Busulfan treatment and tissues were fixed in paraformaldehyde overnight and then embedded in paraffin. […] After all cross sectional areas were counted, the field was randomly moved and all cross-sectional tubules counted in that field. This was continuing until the 10-20 tubules were counted per slide. […]

## CS(=O)(=O)OCCCCOS(C)(=O)=O [busulfan]
GDNF
  testis GDNF expression: global decrease
SSCs [1]
  time required for restoration of murine spermatogenesis post-busulfan treatment: 6 months
TECs [2]; 72 or 96 hours
  TEC apoptosis (cleaved caspase 3): increased apoptosis
TECs [2]; 72 hours
  TEC proliferation (BrdU): decreased proliferation
SSCs [3]
  time to restoration of spermatogenesis following exposure to busulfan: 30-36 weeks
TECs [4]
  microvessel density in testes sections: significant decrease
